# Patent publication US20050039223A1, “Knock-in-mouse” (priority 2002, published 2005)
# Key:
# [1] = biological target: T1, nAChR containing α4-T265I (control α4, mutated α4 and β2) (Homo sapiens, UniProt P17787+P43681, T293I); assay: ACh- and CBZ-dose effect, two electrode voltage clamp in Xenopus oocytes expressing receptors containing α4-T265I; assay type: cell-based
# T1 construct: expressed in transfected cells; host or cells: Xenopus oocytes, nuclear cDNA injection
# Procedure: Expression experiments in Xenopus oocytes were conducted as previously described (2). Nuclear cDNA injections were conducted using a ratio of 0.5 control α4, 0.5 mutated α4 and 1 β2 (total amount 2 ng/oocytes) (3). The oocytes were kept in BARTH solution containing 88 mM NaCl, 1 mM KCl, 2.4 mM NaHCO3, 10 mM HEPES, 0.82 mM MgSO47H2O, 0.33 mM Ca(NO3)2.4H2O, 0.41 mM CaCl2.6H2O, pH 7.4, adjusted with NaOH and supplemented with kanamycin (20 μg/ml), penicillin (100 μg/ml) and streptomycin (100 μg/ml). Recordings were made 2 to 3 days later using the two electrode voltage clamp technique with a GENE-CLAMP amplifier (Axon Instrument). During the experiments the oocytes were continuously rinsed with OR2 solution: 82.5 mM NaCl, 2.5 mM KCl, 2.5 mM CaCl2, 5 mM HEPES, pH 7.4, adjusted with NaOH. Unless stated otherwise, the holding potential was −100 mV and the experiments were performed at 18° C. ACh dose response curves were best fitted by the sum of two empirical Hill equations: y=Imax{a/(1+(EC50H/x)^nH1)+(1−a)/(1+(EC50L/x)^nH2)} (equation (1)). Imax is the maximal current amplitude and x is the agonist concentration. EC50H, nH1 and a are the half-effective concentration, the Hill coefficient the percentage of receptors in high-affinity state, respectively, whereas EC50L and nH2 correspond to the half-effective concentration and the Hill coefficient in low-affinity state. […]
# [2] = tested on: ADNFLE; conditions: ADNFLE patients; antiepileptic drug resistant cases also exist; cited from earlier work
# T1 sequence (P43681 29-627 T293I limits assumed): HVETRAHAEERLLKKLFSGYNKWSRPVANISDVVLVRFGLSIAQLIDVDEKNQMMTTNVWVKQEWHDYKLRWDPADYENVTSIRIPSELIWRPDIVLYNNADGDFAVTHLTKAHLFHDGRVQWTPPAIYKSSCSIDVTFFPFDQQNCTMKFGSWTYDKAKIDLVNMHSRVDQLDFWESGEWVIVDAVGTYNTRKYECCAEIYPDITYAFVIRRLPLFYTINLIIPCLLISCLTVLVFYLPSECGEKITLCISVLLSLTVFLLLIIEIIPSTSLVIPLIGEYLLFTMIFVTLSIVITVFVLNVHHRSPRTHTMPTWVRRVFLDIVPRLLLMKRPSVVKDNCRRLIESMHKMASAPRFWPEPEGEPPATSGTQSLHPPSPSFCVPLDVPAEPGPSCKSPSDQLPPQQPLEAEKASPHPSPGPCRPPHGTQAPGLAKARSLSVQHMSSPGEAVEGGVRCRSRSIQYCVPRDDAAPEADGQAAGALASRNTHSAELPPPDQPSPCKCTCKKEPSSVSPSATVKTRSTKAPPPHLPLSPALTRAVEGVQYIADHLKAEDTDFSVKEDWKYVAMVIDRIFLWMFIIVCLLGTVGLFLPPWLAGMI
# T1 sequence (P43681 27-627, stated change not applied): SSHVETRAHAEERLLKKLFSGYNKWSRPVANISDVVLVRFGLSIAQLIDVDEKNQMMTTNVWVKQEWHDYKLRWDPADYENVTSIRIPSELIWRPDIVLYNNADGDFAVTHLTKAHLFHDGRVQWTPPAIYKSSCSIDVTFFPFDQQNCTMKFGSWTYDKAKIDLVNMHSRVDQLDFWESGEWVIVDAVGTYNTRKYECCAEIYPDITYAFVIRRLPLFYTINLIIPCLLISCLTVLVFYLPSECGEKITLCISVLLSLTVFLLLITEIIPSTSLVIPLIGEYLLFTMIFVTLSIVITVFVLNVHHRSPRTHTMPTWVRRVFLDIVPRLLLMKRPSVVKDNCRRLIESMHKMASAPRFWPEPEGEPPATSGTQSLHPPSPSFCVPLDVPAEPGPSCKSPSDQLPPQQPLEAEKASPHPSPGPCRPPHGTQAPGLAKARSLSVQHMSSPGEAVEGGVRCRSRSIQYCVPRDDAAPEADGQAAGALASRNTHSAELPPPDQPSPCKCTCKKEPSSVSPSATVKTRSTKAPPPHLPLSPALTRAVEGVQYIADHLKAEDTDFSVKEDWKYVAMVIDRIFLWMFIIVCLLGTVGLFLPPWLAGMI
# T1 sequence (P17787 26-502): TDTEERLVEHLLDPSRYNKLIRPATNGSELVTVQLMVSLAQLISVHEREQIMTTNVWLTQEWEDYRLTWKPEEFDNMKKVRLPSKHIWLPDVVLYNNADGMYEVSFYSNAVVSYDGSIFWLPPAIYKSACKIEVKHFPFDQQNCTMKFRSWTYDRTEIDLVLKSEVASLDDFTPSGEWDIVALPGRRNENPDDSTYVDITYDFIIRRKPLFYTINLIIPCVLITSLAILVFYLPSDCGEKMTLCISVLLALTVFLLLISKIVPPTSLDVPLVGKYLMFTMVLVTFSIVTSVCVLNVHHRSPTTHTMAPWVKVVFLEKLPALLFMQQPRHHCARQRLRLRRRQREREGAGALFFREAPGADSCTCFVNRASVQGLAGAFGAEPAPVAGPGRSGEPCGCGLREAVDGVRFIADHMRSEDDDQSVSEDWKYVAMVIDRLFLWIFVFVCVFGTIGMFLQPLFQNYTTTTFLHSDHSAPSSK
"Carbamazepin-sensitivity ([1]; α4-T265I compared with control, CBZ inhibition of ACh-evoked currents)",Compound,"ACh-sensitivity of the mutated receptors ([1]; α4-T265I mutated receptors compared with control, Xenopus oocytes)",Treatability of ADNFLE [2]
–,CC(=O)OCC[N+](C)(C)C [ACh],increased,–
non-increased,"NC(=O)N1c2ccccc2C=Cc2ccccc21 [Carbamazepin, Carbamazepine]",–,can normally be well treated
